The record followed here is patent US8778919B2, “Cyclic anilino—pyridinotriazines” (Janssen Pharmaceutica NV, priority 2005, dated 2014).

The test system of one assay is Chang cells. Nature of the assay: GSK-3 cellular assay (C2): 14C-D-glucose incorporation into glycogen. Format: cell-based. The settings on record: increase in D-glucose incorporation into glycogen, test concentration of 10^−6 M. As for the experimental part: Test compounds were tested for their ability to increase the incorporation of ^14C-D-glucose into glycogen in living cells. To do this, Chang cells (360,000 cells/well) were cultured in 0.5 ml of MEM Rega 3 medium supplemented with 10% fetal calf serum, 1% L-glutamine and 2% sodium carbonate. After 3 days, cells were washed with 0.5 ml of phosphate-buffered saline and overlayed with 1 ml of serum- and glucose-free DMEM medium. Then, 2 μl of compound in DMSO and 50 μl substrate (3 mM glucose and 0.5 μCi ^14C-D-glucose were added and the cultures were incubated for 90 min. Cells were then extracted with 0.5 ml of 20% KOH for 60 min at 37° C. and the cell lysates were transferred to 10 ml tubes containing 300 μl of 1 mg/ml glycogen as […]. Following the addition of 2 ml ethanol, total glycogen was precipitated overnight at −20° C. and the precipitates were recovered by centrifugation. Precipitates were then resuspended in 1 ml of water and transferred to scintillation counter vials. and the amount of ^14C-D-glucose incorporation into glycogen was measured by scintillation counting. Scores for the compounds according to the invention, were obtained at a test concentration of 10^−6 M. Score 1=10-30% increase, Score 2=30-60% increase, Score 3=60-80% increase and Score 4=>80% increase in D-glucose incorporation.

The target of another assay is CDK2/cyclinA (h) (Homo sapiens, UniProt P24941). As to the kind of experiment: Kinase profiling C3.3 CDK2/cyclinA human. It is filed as biochemical. The settings on record: test concentration of 10^−6 M. Summed up: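 Human CDK2/cyclinA (5-10 mU) phosphorylates 0.1 mg/ml histone H1 in 8 mM MOPS pH 7.0, EDTA, 10 mM Mg acetate with [γ-33P]ATP, 40 min at room temperature. After phosphoric acid stop, filter-bound 33P counted by scintillation.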

The next assay addresses GSK-3α (Homo sapiens, UniProt P49840). As to the kind of experiment: GSK-3 kinase assay (C1), GSK-3α. It is filed as biochemical. The settings on record: 1 μM ATP, read-out: C1 Score α. Summed up: (§1)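 Radiometric SPA at room temperature in 25 mM Tris pH 7.4 with 10 mM MgCl2, 1 mM DTT, 5.7 ng/μl GSK-3β or 0.25 ng/μl GSK-3α, 5 μM biotinylated CREB peptide and 1 μM ATP plus ^33P-ATP. Stopped after 1 h; IC50 from dose-response versus no-compound control, reported as pIC50 score bands.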

The target in the next assay is GSK-3β (Homo sapiens, UniProt P49841). Nature of the assay: GSK-3 kinase assay (C1), GSK-3β. It is filed as biochemical. Conditions: 1 μM ATP, read-out: C1 Score β. Summed up:
as §1

Another assay concerns the target CDK2/cyclinE (h) (Homo sapiens, UniProt P24941). As to the kind of experiment: Kinase profiling C3.4 CDK2/cyclinE human. Format: biochemical. Conditions: test concentration of 10^−6 M. Summed up: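 Radiometric filter-binding assay: 5-10 mU enzyme with 0.1 mg/ml histone H1 in 8 mM MOPS pH 7.0, 0.2 mM EDTA, 10 mM Mg acetate and [γ-33P]ATP. Incubated 40 min at room temperature, stopped with phosphoric acid. Substrate-bound 33P counted on P30 filtermat.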

In another assay the target is CDK3/cyclinE (h) (Homo sapiens, UniProt Q00526). As to the kind of experiment: Kinase profiling C3.5 CDK3/cyclinE human. It is filed as biochemical. Conditions: test concentration of 10^−6 M. Summed up:
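Human CDK3/cyclinE (5-10 mU) phosphorylated 0.1 mg/ml histone H1 in 8 mM MOPS pH 7.0, 0.2 mM EDTA and 10 mM MgAcetate with [γ-33P]ATP. Reaction ran 40 min at room temperature and was stopped with phosphoric acid. Substrate-bound radioactivity was captured on P30 filtermat and measured by scintillation counting.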

Another assay addresses CDK1/cyclinB (h) (Homo sapiens, UniProt P06493). As to the kind of experiment: Kinase profiling C3.2 CDK1/cyclinB human. The settings on record: test concentration of 10^−6 M. It is filed as biochemical. Summed up:
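Radiometric filter-binding assay: human CDK1/cyclinB (5-10 mU) with 0.1 mg/ml histone H1 substrate and [γ-33P]ATP in 8 mM MOPS pH 7.0, 10 mM Mg acetate, 40 min at room temperature. Stopped with phosphoric acid; substrate-bound 33P counted on P30 filtermat by scintillation.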

The next assay addresses CDK7/cyclinH/MAT1 (h) (Homo sapiens, UniProt P50613). Nature of the assay: Kinase profiling C3.8 CDK7/cyclinH/MAT1 human. It is filed as biochemical. The settings on record: CDK7/cyclinH/MAT1, test concentration of 10^−6 M. Summed up: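 Human CDK7/cyclinH/MAT1 (5-10 mU) incubated 40 min at room temperature in 8 mM MOPS pH 7.0, 0.2 mM EDTA, 10 mM Mg acetate, 500 μM peptide substrate and [γ-^33P]ATP. Stopped with phosphoric acid; substrate phosphorylation measured by filter binding and scintillation counting.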

A further assay addresses CDK5/p35 human (Homo sapiens, UniProt Q00535). Nature of the assay: Kinase profiling C3.6 CDK5/p35 human. It is filed as biochemical. The settings on record: CDK5/p35, test concentration of 10^−6 M. A digest of the protocol: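 Radiometric filter-binding assay: human CDK5/p35 (5-10 mU) with 0.1 mg/ml histone H1 substrate in 8 mM MOPS pH 7.0, 0.2 mM EDTA, 10 mM Mg acetate and [γ-33P]ATP. Incubated 40 min at room temperature, stopped with phosphoric acid. Substrate 33P incorporation counted on P30 filtermat by scintillation.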

A further assay deals with CDK6/cyclinD3 human (Homo sapiens, UniProt Q00534). As to the kind of experiment: Kinase profiling C3.7 CDK6/cyclinD3 human. It is filed as biochemical. Conditions: CDK6/cyclinD3, test concentration of 10^−6 M. As for the experimental part:
The in vitro inhibition of a panel of kinases was assessed using either the glass-fiber filter technology as described by Davies, S. P. et al., Biochem J. (2000), 351; p. 95-105. In the glass-fiber filter technology the activity of the kinase of interest is measured using an appropriate substrate that is incubated with the aforementioned kinase protein in the presence of (^33P) radiolabeled ATP. (^33P) Phosporylation of the substrate is subsequently measured as radioactivity bound on a glassfiber-filter.
All kinases are pre-diluted to a 10× working concentration prior to addition into the assay. The composition of the dilution buffer for each kinase is detailed below.
All substrates are dissolved and diluted to working stocks in de-ionised water, apart from histone H1 that is stored in 10× working stock in 20 mM MOPS pH 7.4.
In a final reaction volume of 25 μl, CDK6/cyclinD3 human (5-10 mU) is incubated with 8 mM MOPS pH 7.0, 0.2 mM EDTA, 0.1 mg/ml histone H1, 10 mM MgAcetate and [γ-^33P-ATP] (specific activity approx. 500 cpm/pmol, concentration as required). The reaction is initiated by the addition of the MgATP mix. After incubation for 40 minutes at room temperature, the reaction is stopped by the addition of 5 μl of a 3% phosphoric acid solution. 10 μl of the reaction is then spotted onto a P30 filtermat and washed three times for 5 minutes in 75 mM phosphoric acid and once in methanol prior to drying and scintillation counting.

Chain of GSK-3β (P49841 whole entry, species assumed): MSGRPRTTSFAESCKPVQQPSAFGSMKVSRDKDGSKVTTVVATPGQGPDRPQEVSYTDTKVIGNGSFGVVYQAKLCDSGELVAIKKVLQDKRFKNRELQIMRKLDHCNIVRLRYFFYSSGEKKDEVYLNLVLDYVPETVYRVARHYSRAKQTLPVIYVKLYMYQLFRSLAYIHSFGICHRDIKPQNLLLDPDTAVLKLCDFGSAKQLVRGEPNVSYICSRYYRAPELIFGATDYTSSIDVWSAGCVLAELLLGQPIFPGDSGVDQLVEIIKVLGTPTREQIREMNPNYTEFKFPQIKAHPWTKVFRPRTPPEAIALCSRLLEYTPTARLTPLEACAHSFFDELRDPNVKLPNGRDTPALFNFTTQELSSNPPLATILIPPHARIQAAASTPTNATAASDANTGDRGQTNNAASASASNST
Chain of CDK7/cyclinH/MAT1 (h) (P50613 whole entry): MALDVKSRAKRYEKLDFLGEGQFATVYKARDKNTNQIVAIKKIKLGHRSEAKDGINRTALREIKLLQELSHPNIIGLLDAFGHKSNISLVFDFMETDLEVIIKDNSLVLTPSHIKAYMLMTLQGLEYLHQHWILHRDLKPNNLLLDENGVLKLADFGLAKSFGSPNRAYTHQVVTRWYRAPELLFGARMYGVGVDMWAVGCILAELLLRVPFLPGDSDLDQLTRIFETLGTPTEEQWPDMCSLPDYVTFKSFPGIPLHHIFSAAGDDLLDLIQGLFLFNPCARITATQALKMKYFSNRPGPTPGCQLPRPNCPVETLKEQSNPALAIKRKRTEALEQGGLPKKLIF
Chain of CDK7/cyclinH/MAT1 (h) (P51946 whole entry partner): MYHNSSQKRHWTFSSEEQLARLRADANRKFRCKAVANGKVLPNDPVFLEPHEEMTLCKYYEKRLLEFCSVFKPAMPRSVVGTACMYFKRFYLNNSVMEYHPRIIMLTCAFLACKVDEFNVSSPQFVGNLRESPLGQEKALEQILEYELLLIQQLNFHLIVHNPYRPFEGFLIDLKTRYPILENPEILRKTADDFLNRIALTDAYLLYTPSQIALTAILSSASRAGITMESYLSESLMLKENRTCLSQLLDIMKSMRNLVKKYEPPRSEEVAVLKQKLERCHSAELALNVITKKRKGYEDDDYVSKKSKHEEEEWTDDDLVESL
Chain of CDK7/cyclinH/MAT1 (h) (P51948 whole entry partner): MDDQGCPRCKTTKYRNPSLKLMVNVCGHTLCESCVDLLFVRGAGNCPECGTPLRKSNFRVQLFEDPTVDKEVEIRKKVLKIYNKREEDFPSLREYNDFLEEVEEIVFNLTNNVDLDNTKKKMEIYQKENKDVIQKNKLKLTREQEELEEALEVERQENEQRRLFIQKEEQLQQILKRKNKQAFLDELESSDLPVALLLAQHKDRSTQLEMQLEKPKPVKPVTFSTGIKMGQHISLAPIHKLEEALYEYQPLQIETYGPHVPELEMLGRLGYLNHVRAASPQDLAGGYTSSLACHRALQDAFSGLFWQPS
Chain of GSK-3α (P49840 whole entry, species assumed): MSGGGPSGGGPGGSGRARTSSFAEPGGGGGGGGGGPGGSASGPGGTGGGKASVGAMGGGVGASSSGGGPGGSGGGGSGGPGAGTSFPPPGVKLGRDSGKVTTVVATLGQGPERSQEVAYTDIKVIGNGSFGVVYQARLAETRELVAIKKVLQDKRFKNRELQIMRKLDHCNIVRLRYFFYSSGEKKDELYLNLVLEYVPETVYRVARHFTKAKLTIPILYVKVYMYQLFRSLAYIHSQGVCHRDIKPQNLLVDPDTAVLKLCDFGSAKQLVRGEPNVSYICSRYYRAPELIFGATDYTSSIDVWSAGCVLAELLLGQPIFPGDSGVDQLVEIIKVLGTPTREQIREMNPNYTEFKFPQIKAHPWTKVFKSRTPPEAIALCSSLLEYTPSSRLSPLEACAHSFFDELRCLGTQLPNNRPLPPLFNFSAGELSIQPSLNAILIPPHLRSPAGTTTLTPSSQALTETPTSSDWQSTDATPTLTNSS
Chain of CDK1/cyclinB (h) (P06493 whole entry): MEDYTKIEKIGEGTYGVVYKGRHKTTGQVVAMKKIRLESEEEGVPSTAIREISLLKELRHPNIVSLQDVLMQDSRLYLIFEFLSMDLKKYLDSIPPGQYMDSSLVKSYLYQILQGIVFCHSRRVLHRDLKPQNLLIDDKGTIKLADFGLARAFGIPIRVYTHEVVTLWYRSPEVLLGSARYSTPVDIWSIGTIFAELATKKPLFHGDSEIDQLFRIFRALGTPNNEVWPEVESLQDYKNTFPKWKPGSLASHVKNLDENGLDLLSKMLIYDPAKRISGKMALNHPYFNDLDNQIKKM
Chain of CDK1/cyclinB (h) (P14635 whole entry partner): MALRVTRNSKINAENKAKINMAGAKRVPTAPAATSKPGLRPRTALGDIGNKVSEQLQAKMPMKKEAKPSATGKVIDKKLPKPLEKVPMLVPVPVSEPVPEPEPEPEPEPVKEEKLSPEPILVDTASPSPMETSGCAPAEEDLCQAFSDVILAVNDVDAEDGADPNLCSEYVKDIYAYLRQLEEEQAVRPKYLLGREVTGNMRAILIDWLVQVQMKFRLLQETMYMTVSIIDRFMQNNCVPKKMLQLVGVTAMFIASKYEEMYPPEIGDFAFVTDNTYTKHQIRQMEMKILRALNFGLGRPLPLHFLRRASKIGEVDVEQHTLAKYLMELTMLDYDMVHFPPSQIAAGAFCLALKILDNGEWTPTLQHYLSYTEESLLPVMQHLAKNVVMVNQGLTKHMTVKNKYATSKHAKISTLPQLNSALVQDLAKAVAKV
Chain of CDK5/p35 human (Q00535 whole entry): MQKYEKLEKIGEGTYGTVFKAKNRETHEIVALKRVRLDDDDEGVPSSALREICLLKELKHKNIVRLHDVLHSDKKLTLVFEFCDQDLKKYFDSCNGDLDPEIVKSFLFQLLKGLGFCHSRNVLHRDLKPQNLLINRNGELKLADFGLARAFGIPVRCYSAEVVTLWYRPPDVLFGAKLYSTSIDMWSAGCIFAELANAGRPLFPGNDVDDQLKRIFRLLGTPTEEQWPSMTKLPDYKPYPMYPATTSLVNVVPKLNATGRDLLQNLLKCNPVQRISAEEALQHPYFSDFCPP
Chain of CDK5/p35 human (Q15078 whole entry partner): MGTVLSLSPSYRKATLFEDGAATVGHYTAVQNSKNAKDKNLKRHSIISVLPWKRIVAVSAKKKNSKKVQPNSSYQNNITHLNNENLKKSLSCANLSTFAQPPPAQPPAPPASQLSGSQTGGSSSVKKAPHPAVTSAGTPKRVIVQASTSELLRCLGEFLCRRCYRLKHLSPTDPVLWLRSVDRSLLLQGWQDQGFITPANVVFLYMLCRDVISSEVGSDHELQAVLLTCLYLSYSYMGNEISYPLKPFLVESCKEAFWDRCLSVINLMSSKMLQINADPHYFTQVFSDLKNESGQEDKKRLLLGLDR
Chain of CDK6/cyclinD3 human (Q00534 whole entry): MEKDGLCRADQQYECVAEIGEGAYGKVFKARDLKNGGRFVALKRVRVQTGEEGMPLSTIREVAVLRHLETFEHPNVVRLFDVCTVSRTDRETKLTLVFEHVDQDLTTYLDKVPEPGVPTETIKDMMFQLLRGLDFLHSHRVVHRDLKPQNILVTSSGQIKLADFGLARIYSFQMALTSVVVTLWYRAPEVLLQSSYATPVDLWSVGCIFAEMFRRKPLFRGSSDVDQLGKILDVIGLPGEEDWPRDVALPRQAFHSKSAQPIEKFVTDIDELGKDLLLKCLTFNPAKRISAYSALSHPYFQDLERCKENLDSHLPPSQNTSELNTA
Chain of CDK6/cyclinD3 human (P30281 whole entry partner): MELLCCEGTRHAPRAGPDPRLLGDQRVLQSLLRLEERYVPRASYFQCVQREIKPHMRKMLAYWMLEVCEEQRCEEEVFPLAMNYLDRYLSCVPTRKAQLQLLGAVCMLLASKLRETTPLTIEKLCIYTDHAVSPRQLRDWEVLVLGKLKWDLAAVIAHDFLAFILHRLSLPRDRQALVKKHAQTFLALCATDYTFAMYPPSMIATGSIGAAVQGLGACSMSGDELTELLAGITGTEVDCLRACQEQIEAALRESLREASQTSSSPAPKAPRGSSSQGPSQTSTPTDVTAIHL

With `CC(C)N1CC(=O)NCCCc2cc(ccn2)-c2ncnc(n2)Nc2cccc(c2)C1` [Compound 65], the “C2 Score” value with Chang cells is 3 (Score 3=60-80% increase). Also, the C3.3 score on CDK2/cyclinA (h) was 2 (Score 2 = 30-60% inhibition). Moreover, the IC50 on GSK-3α was < 10 nM.
`CN1CC(=O)NCCNc2cc(ccn2)-c2ncnc(n2)Nc2cccc(c2)C1` [Compound 4]: the “C2 Score” value in the assay with Chang cells was 4 (Score 4=>80% increase in D-glucose incorporation). The IC50 at GSK-3α and on GSK-3β was 10 to 100 nM each time.
Turning to `CN1CCCc2cc(ccc2F)-c2ncnc(n2)Nc2cccc(c2)CNC(=O)C1` [Compound 70], the “C2 Score” value in the assay on Chang cells is 4 (Score 4=>80% increase in D-glucose incorporation). The IC50 on GSK-3α was < 10 nM.
As to `O=C1CN2CCN(CC2)Cc2cccc(c2)Nc2ncnc(n2)-c2cncc(c2)CCCN1` [Compound 84], the “C2 Score” value with Chang cells is 3 (Score 3=60-80% increase). Besides, at CDK2/cyclinE (h), the C3.4 score was 3 (Score 3 = 60-80% inhibition). At CDK3/cyclinE (h), the C3.5 score is given as 2 (Score 2 = 30-60% inhibition). Besides, the C3.2 score on CDK1/cyclinB (h) is 3 (Score 3 = 60-80% inhibition). Moreover, the C3.3 score on CDK2/cyclinA (h) was 2 (Score 2 = 30-60% inhibition). For the same compound, the IC50 at GSK-3α was < 10 nM. Further, the C3.8 score on CDK7/cyclinH/MAT1 (h) is listed as 1 (Score 1 = 10-30% inhibition). For the same compound, at CDK5/p35 human, the C3.6 score is 2 (Score 2 = 30-60% inhibition).
Consider `CN1CC(=O)NCCCNc2cc(ccn2)-c2ncnc(n2)Nc2cccc(c2)C1` [Compound 5], for which the “C2 Score” value with Chang cells is 4 (Score 4=>80% increase in D-glucose incorporation). The IC50 at GSK-3α and at GSK-3β was 10 to 100 nM in each case.
Consider `O=C1CN2CCN(CC2)Cc2cccc(c2)Nc2ncnc(n2)-c2cccc(c2)CCCN1` [Compound 52], for which the “C2 Score” value in the assay with Chang cells is given as 4 (Score 4=>80% increase in D-glucose incorporation). Moreover, the C3.4 score on CDK2/cyclinE (h) is 4 (Score 4 = >80% inhibition). The C3.5 score on CDK3/cyclinE (h) is 2 (Score 2 = 30-60% inhibition). Besides, on CDK1/cyclinB (h), the C3.2 score is 4 (Score 4 = >80% inhibition). Moreover, the C3.3 score on CDK2/cyclinA (h) was 4 (Score 4 = >80% inhibition). Further, the IC50 at GSK-3α is < 10 nM. In addition, the C3.8 score on CDK7/cyclinH/MAT1 (h) is 1 (Score 1 = 10-30% inhibition). The C3.6 score at CDK5/p35 human is listed as 3 (Score 3 = 60-80% inhibition).
Consider `CN1CC(=O)N(C)CCCc2cc(ccn2)-c2ncnc(n2)Nc2cccc(c2)C1` [Compound 67], for which the “C2 Score” value with Chang cells is given as 4 (Score 4=>80% increase in D-glucose incorporation). Also, at GSK-3α, the IC50 was < 10 nM.
Regarding `O=C1CCN2CCN(CC2)Cc2cccc(c2)Nc2ncnc(n2)-c2ccnc(c2)NCCN1` [Compound 19], at CDK2/cyclinE (h), the C3.4 score is on record as 4 (Score 4 = >80% inhibition). Also, the C3.5 score at CDK3/cyclinE (h) was 4 (Score 4 = >80% inhibition). For the same compound, the C3.2 score on CDK1/cyclinB (h) is on record as 4 (Score 4 = >80% inhibition). In addition, the C3.3 score on CDK2/cyclinA (h) was 4 (Score 4 = >80% inhibition). Further, the IC50 at GSK-3α lay in the range of 100 to 1000 nM; at GSK-3β, 10 to 100 nM. In addition, the C3.7 score on CDK6/cyclinD3 human was 2 (Score 2 = 30-60% inhibition). Besides, the C3.8 score at CDK7/cyclinH/MAT1 (h) is listed as 2 (Score 2 = 30-60% inhibition). In addition, the C3.6 score at CDK5/p35 human is reported as 3 (Score 3 = 60-80% inhibition).
